Measurements: US11912693B2, “Compounds for modulating S1P1 activity and methods of using the same” (TREVENA, INC., priority 2017, dated 2024)

Key:
[1] = target: T1, human sphingosine-1-phosphate receptor 1 (S1P1) (Homo sapiens (Human), UniProt P21453); experiment: β-Arrestin2 recruitment assay (PathHunter), S1P1 CHO-K1 cells; assay type: cell-based; details: for hS1P1 B-arrestin2 pEC50 / EC50: β-arrestin2 recruitment, S1P1 CHO-K1 cells; for Emax: CHO-K1, efficacy (SPAN) normalized to fingolimod, read-out: hS1P1 B-arrestin2 SPAN; for EC50: read-out: hS1P1 B-arrestin2 pEC50 (converted)
Outline: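 Enzyme-fragment complementation read-out: agonist-driven β-arrestin2 binding to ProLink-tagged human S1P1 in stable CHO-K1 cells restores β-galactosidase, measured 1 h at room temperature after a 60 min 37° C. compound incubation. Potency as pEC50, efficacy relative to fingolimod (SPAN).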
Target sequence in this assay (P21453 whole entry, looked up, the tested form may be a part): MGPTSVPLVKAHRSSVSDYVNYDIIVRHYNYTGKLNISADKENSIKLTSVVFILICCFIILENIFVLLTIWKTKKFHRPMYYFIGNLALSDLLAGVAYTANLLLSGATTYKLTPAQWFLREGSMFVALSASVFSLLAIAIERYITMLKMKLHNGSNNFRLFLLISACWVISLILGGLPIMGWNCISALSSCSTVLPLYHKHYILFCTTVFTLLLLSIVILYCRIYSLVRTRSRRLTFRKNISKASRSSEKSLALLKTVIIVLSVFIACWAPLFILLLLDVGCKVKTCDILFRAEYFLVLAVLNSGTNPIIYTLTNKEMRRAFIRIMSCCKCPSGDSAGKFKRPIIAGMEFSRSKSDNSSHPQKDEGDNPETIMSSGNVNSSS
Target sequence in this assay (P32121 whole entry partner, looked up, the tested form may be a part): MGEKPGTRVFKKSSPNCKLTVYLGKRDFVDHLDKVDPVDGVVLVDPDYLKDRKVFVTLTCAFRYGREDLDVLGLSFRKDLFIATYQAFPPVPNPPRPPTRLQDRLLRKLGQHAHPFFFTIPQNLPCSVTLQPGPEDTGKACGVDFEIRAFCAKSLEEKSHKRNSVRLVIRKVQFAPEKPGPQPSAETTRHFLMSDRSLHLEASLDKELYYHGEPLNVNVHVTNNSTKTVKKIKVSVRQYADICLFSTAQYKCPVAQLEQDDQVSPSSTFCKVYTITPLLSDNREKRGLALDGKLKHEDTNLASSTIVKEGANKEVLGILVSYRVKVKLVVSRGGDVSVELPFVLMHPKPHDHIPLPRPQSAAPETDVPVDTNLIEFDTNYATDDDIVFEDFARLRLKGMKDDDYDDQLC

[2] = target: T1, human sphingosine-1-phosphate receptor 1 (S1P1); experiment: Inhibition of cAMP production (HTRF cAMP HiRange), S1P1 CHO-K1 cells; assay type: cell-based; details: for hS1P1 cAMP pEC50 / EC50: inhibition of cAMP production, S1P1 CHO-K1 cells; for Emax: CHO-K1, efficacy (SPAN) normalized to fingolimod, read-out: hS1P1 cAMP SPAN; for EC50: read-out: hS1P1 cAMP pEC50 (converted)
Outline: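 CHO-K1 cells stably co-expressing human S1P1 (C-terminal Prolink tag) and EA-β-arrestin2 were grown in AssayComplete Media 6 at 37° C. and 5% CO2, plated, and incubated overnight. Agonist-driven inhibition of intracellular cAMP was read by TR-FRET with the HTRF cAMP HiRange kit on a PheraStar reader. Potency is pEC50, and efficacy (SPAN) is normalized to fingolimod.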
Target sequence in this assay (P21453 whole entry, looked up, the tested form may be a part): as the sequence (P21453 whole entry, looked up, the tested form may be a part) above

CCC1(CC)CC(=O)c2cc(-c3nc(-c4ccco4)no3)ccc2O1 [Compound 465, 2,2-diethyl-6-(3-(furan-2-yl)-1,2,4-oxadiazol-5-yl)chroman-4-one]
hS1P1 B-arrestin2 pEC50 [1]: >5
hS1P1 cAMP pEC50 [2]: >6.5

CCC1(CC)CC(=O)c2cc(-c3nc(-c4cnc[nH]4)no3)ccc2O1 [Compound 466, 6-(3-(1H-imidazol-5-yl)-1,2,4-oxadiazol-5-yl)-2,2-diethylchroman-4-one]
hS1P1 B-arrestin2 pEC50 [1]: <5
hS1P1 cAMP pEC50 [2]: <6.5

CCC1(CC)CC(=O)c2cc(-c3nc(-c4cccs4)no3)ccc2O1 [Compound 467, 2,2-diethyl-6-(3-(thiophen-2-yl)-1,2,4-oxadiazol-5-yl)chroman-4-one]
hS1P1 B-arrestin2 pEC50 [1]: >5
hS1P1 cAMP pEC50 [2]: >6.5

CCC1(CC)CC(=O)c2cc(-c3nc(-c4ccsc4)no3)ccc2O1 [Compound 468, 2,2-diethyl-6-(3-(thiophen-3-yl)-1,2,4-oxadiazol-5-yl)chroman-4-one]
hS1P1 B-arrestin2 pEC50 [1]: >5
hS1P1 cAMP pEC50 [2]: >6.5

CCC1(CC)CC(=O)c2cc(-c3nc(-c4ccn[nH]4)no3)ccc2O1 [Compound 470, 6-(3-(1H-pyrazol-5-yl)-1,2,4-oxadiazol-5-yl)-2,2-diethylchroman-4-one]
hS1P1 B-arrestin2 pEC50 [1]: <5
hS1P1 cAMP pEC50 [2]: <6.5

CC(C)Nc1ccc(-c2nnc(-c3ccc4c(c3)CCC(=O)N4)o2)cc1C#N [Compound 473, 5-[5-(2-oxo-1,2,3,4-tetrahydroquinolin-6-yl)-1,3,4-oxadiazol-2-yl]-2-[(propan-2-yl)amino]benzonitrile]
hS1P1 B-arrestin2 pEC50 [1]: >5
hS1P1 cAMP pEC50 [2]: >6.5

CC(C)n1nnc2cc(-c3nc(-c4ccccn4)co3)ccc21 [Compound 474, 1-(propan-2-yl)-5-[4-(pyridin-2-yl)-1,3-oxazol-2-yl]-1H-1,2,3-benzotriazole]
Emax [1]: > 75%
hS1P1 B-arrestin2 pEC50 [1]: <5
Emax [2]: > 75%
hS1P1 cAMP pEC50 [2]: <6.5

N#Cc1cc(-c2nnc(-c3ccc4c(c3)CCC(=O)N4)o2)ccc1NCC1CC1 [Compound 475, 2-[(cyclopropylmethyl)amino]-5-[5-(2-oxo-1,2,3,4-tetrahydroquinolin-6-yl)-1,3,4-oxadiazol-2-yl]benzonitrile]
hS1P1 B-arrestin2 pEC50 [1]: >5
hS1P1 cAMP pEC50 [2]: >6.5

N#Cc1cc(-c2nnc(-c3ccc4c(c3)CCC(=O)N4)o2)ccc1NCCF [Compound 476, 2-[(2-fluoroethyl)amino]-5-[5-(2-oxo-1,2,3,4-tetrahydroquinolin-6-yl)-1,3,4-oxadiazol-2-yl]benzonitrile]
hS1P1 B-arrestin2 pEC50 [1]: >5
hS1P1 cAMP pEC50 [2]: >6.5

N#Cc1cc(-c2nnc(-c3ccc4c(c3)CCC(=O)N4)o2)ccc1NCC(F)F [Compound 477, 2-[(2,2-difluoroethyl)amino]-5-[5-(2-oxo-1,2,3,4-tetrahydroquinolin-6-yl)-1,3,4-oxadiazol-2-yl]benzonitrile]
hS1P1 B-arrestin2 pEC50 [1]: >5
hS1P1 cAMP pEC50 [2]: >6.5

O=C1CC(CO)(CO)Oc2ccc(-c3nc(-c4cccnc4)no3)cc21 [Compound 478, 2,2-bis(hydroxymethyl)-6-[3-(pyridin-3-yl)-1,2,4-oxadiazol-5-yl]-3,4-dihydro-2H-1-benzopyran-4-one]
hS1P1 B-arrestin2 pEC50 [1]: <5
hS1P1 cAMP pEC50 [2]: <6.5

O=C1c2cc(-c3nc(-c4cccnc4)no3)ccc2OC(CO)(CO)C1Br (centres unmarked) [Compound 479, 3-bromo-2,2-bis(hydroxymethyl)-6-[3-(pyridin-3-yl)-1,2,4-oxadiazol-5-yl]-3,4-dihydro-2H-1-benzopyran-4-one]
hS1P1 B-arrestin2 pEC50 [1]: <5
hS1P1 cAMP pEC50 [2]: <6.5

CC1(C)Oc2ccc(-c3nc(-c4ccncc4)no3)cc2C1=O [Compound 480, 2,2-dimethyl-5-[3-(pyridin-4-yl)-1,2,4-oxadiazol-5-yl]-2,3-dihydro-1-benzofuran-3-one]
hS1P1 B-arrestin2 pEC50 [1]: <5
hS1P1 cAMP pEC50 [2]: <6.5

CC1(C)Oc2ccc(-c3nc(-c4cccnc4)no3)cc2C1=O [Compound 481, 2,2-dimethyl-5-[3-(pyridin-3-yl)-1,2,4-oxadiazol-5-yl]-2,3-dihydro-1-benzofuran-3-one]
hS1P1 B-arrestin2 pEC50 [1]: >5
hS1P1 cAMP pEC50 [2]: <6.5

O=C1CC(CO)(CO)Oc2ccc(-c3nc(-c4ccncc4)no3)cc21 [Compound 482, 2,2-bis(hydroxymethyl)-6-[3-(pyridin-4-yl)-1,2,4-oxadiazol-5-yl]-3,4-dihydro-2H-1-benzopyran-4-one]
hS1P1 B-arrestin2 pEC50 [1]: <5
hS1P1 cAMP pEC50 [2]: <6.5

O=C1c2cc(-c3nc(-c4ccncc4)no3)ccc2OC(CO)(CO)C1Br (centres unmarked) [Compound 483, 3-bromo-2,2-bis(hydroxymethyl)-6-[3-(pyridin-4-yl)-1,2,4-oxadiazol-5-yl]-3,4-dihydro-2H-1-benzopyran-4-one]
hS1P1 B-arrestin2 pEC50 [1]: <5
hS1P1 cAMP pEC50 [2]: <6.5

CC(C)Nc1ccc(-c2nnc(-c3ccc4[nH]c(=O)oc4c3)o2)cc1C#N [Compound 484, 5-[5-(2-oxo-2,3-dihydro-1,3-benzoxazol-6-yl)-1,3,4-oxadiazol-2-yl]-2-[(propan-2-yl)amino]benzonitrile]
hS1P1 B-arrestin2 pEC50 [1]: >5
hS1P1 cAMP pEC50 [2]: >6.5

CCC1(CC)CC(=O)c2cc(-c3nc(-c4cc[nH]c4)no3)ccc2O1 [Compound 485, 6-(3-(1H-pyrrol-3-yl)-1,2,4-oxadiazol-5-yl)-2,2-diethylchroman-4-one]
hS1P1 B-arrestin2 pEC50 [1]: <5
hS1P1 cAMP pEC50 [2]: >6.5

N#Cc1cc(-c2nnc(-c3ccc4[nH]c(=O)oc4c3)o2)ccc1NCC1CC1 [Compound 486, 2-[(cyclopropylmethyl)amino]-5-[5-(2-oxo-2,3-dihydro-1,3-benzoxazol-6-yl)-1,3,4-oxadiazol-2-yl]benzonitrile]
hS1P1 B-arrestin2 pEC50 [1]: <5
hS1P1 cAMP pEC50 [2]: >6.5

N#Cc1cc(-c2nnc(-c3ccc4[nH]c(=O)oc4c3)o2)ccc1NCCF [Compound 487, 2-[(2-fluoroethyl)amino]-5-[5-(2-oxo-2,3-dihydro-1,3-benzoxazol-6-yl)-1,3,4-oxadiazol-2-yl]benzonitrile]
hS1P1 B-arrestin2 pEC50 [1]: >5
hS1P1 cAMP pEC50 [2]: <6.5

N#Cc1cc(-c2nnc(-c3ccc4[nH]c(=O)oc4c3)o2)ccc1NCC(F)F [Compound 488, 2-[(2,2-difluoroethyl)amino]-5-[5-(2-oxo-2,3-dihydro-1,3-benzoxazol-6-yl)-1,3,4-oxadiazol-2-yl]benzonitrile]
hS1P1 B-arrestin2 pEC50 [1]: >5
hS1P1 cAMP pEC50 [2]: >6.5

Cc1cc(-c2noc(-c3ccc4c(c3)nnn4C(C)C)n2)c(C)o1 [Compound 490, 5-[3-(2,5-dimethylfuran-3-yl)-1,2,4-oxadiazol-5-yl]-1-(propan-2-yl)-1H-1,2,3-benzotriazole]
Emax [1]: > 75%
EC50 [1]: < 10 µM
Emax [2]: > 75%
EC50 [2]: < 0.316 µM

Cc1occc1-c1noc(-c2ccc3c(c2)nnn3CC(C)(C)O)n1 [Compound 492, 2-methyl-1-{5-[3-(2-methylfuran-3-yl)-1,2,4-oxadiazol-5-yl]-1H-1,2,3-benzotriazol-1-yl}propan-2-ol]
Emax [1]: > 75%
hS1P1 B-arrestin2 pEC50 [1]: <5
Emax [2]: > 75%
hS1P1 cAMP pEC50 [2]: <6.5

Cc1cc(-c2noc(-c3ccc4c(c3)nnn4CC(C)(C)O)n2)c(C)o1 [Compound 493, 1-{5-[3-(2,5-dimethylfuran-3-yl)-1,2,4-oxadiazol-5-yl]-1H-1,2,3-benzotriazol-1-yl}-2-methylpropan-2-ol]
Emax [1]: > 75%
EC50 [1]: > 10 µM
Emax [2]: > 75%
EC50 [2]: > 0.316 µM

COCC1(COC)CC(=O)c2cc(-c3nc(-c4ccncc4)no3)ccc2O1 [Compound 494, 2,2-bis(methoxymethyl)-6-[3-(pyridin-4-yl)-1,2,4-oxadiazol-5-yl]-3,4-dihydro-2H-1-benzopyran-4-one]
hS1P1 B-arrestin2 pEC50 [1]: >5
hS1P1 cAMP pEC50 [2]: <6.5

CCC1(CC)CC(=O)c2cc(-c3nc(-c4ccoc4)no3)ccc2O1 [Compound 495, 2,2-diethyl-6-(3-(furan-3-yl)-1,2,4-oxadiazol-5-yl)chroman-4-one]
hS1P1 B-arrestin2 pEC50 [1]: >5
hS1P1 cAMP pEC50 [2]: >6.5

CC(C)n1nnc2cc(-c3nc(-c4cccnc4Cl)no3)ccc21 [Compound 499, 5-[3-(2-chloropyridin-3-yl)-1,2,4-oxadiazol-5-yl]-1-(propan-2-yl)-1H-1,2,3-benzotriazole]
Emax [1]: > 75%
EC50 [1]: < 10 µM
Emax [2]: > 75%
EC50 [2]: < 0.316 µM

CCC1(CC)CC(=O)c2cc(-c3nc(-c4ccc5nonc5c4)no3)ccc2O1 [Compound 500, 6-[3-(2,1,3-benzoxadiazol-5-yl)-1,2,4-oxadiazol-5-yl]-2,2-diethyl-3,4-dihydro-2H-1-benzopyran-4-one]
hS1P1 B-arrestin2 pEC50 [1]: <5
hS1P1 cAMP pEC50 [2]: <6.5

CC(C)(O)Cn1nnc2cc(-c3nc(-c4ccc5nc[nH]c5c4)no3)ccc21 [Compound 501, 1-{5-[3-(1H-1,3-benzodiazol-6-yl)-1,2,4-oxadiazol-5-yl]-1H-1,2,3-benzotriazol-1-yl}-2-methylpropan-2-ol]
Emax [1]: > 75%
hS1P1 B-arrestin2 pEC50 [1]: <5
Emax [2]: < 75%
hS1P1 cAMP pEC50 [2]: <6.5

CC(C)n1nnc2cc(-c3nc4ccncc4o3)ccc21 [Compound 503, 2-(1-isopropyl-1H-benzo[d][1,2,3]triazol-5-yl)oxazolo[5,4-c]pyridine]
Emax [1]: > 75%
hS1P1 B-arrestin2 pEC50 [1]: <5
Emax [2]: > 75%
hS1P1 cAMP pEC50 [2]: <6.5
